In ChEMBL document CHEMBL3244041, “Synthesis and structure-activity relationships of 5H,11 H-[I]benzopyrano[4,3-g]benzopyran-9-carboxylic acids” (1977):

What was measured:
Rattus norvegicus [1] = assay: Antiallergic activity in adrenalectomized Sprague-Dawley rat assessed as inhibition of ovalbumin-induced passive cutaneous anaphylaxis reaction at 1 mg/kg, iv after 12 days by Evans blue staining; format: functional; details: 288 h
Rattus norvegicus [2] = assay: Antiallergic activity in iv dosed adrenalectomized Sprague-Dawley rat assessed as inhibition of ovalbumin-induced passive cutaneous anaphylaxis reaction after 12 days by Evans blue staining; format: functional; details: 288 h

| SMILES | inhibition in vivo at 1 mg/kg (Rattus norvegicus [1]) | ED50 (Rattus norvegicus [2]) |
| --- | --- | --- |
| CC1(C)Oc2cc3oc(C(=O)O)cc(=O)c3cc2-c2ccc(N)cc21 | 77.8% | – |
| NCCO.O=C(O)c1cc(=O)c2cc3c(oc(=O)c4ccccc43)c(O)c2o1 | 55.6% | 2 mg/kg |
| CC1(C)Oc2cc3oc(C(=O)O)cc(=O)c3cc2-c2ccc(F)cc21.NCCO | 60% | 0.87 mg/kg |
| CC1(C)Oc2cc3oc(C(=O)O)cc(=O)c3cc2-c2ccc(S(=O)(=O)O)cc21 | 0% | – |
| Cc1c2c(cc3oc(C(=O)O)cc(=O)c13)OC(C)(C)c1ccccc1-2 | 0% | – |
| CC1(C)Oc2cc3oc(C(=O)O)cc(=O)c3cc2-c2cc(Cl)ccc21 | 25% | – |
| COc1ccc2c(c1)C(C)(C)Oc1cc3oc(C(=O)O)cc(=O)c3cc1-2 | 66.7% | – |
| CC1(C)Oc2cc3oc(C(=O)O)cc(=O)c3cc2-c2ccc(Cl)cc21 | 60% | – |
| CC1(C)Oc2c(cc3c(=O)cc(C(=O)O)oc3c2N)-c2ccccc21 | 64.3% | – |
| CC(=O)Oc1ccc2c(c1)C(C)(C)Oc1cc3oc(C(=O)O)cc(=O)c3cc1-2 | 73.4% | – |
| CCCOc1ccc2c(c1)C(C)(C)Oc1cc3oc(C(=O)O)cc(=O)c3cc1-2 | 40% | – |
| CC1(C)Oc2cc3oc(C(=O)O)cc(=O)c3c(O)c2-c2ccccc21 | 0% | – |
| O=C([O-])c1cc(=O)c2cc3c(cc2o1)OCc1ccccc1-3.[Na+] | 64.3% | 0.3 mg/kg |
| COc1cccc2c1COc1cc3oc(C(=O)O)cc(=O)c3cc1-2 | 0% | – |
| O=C(O)c1cc(=O)c2cc3c(c(O)c2o1)OCc1ccccc1-3 | 33.4% | – |
| CCCCC1(CCCC)Oc2cc3oc(C(=O)O)cc(=O)c3cc2-c2ccccc21 | 25% | – |
| CC1(C)Oc2cc3oc(C(=O)[O-])cc(=O)c3cc2-c2ccc(O)cc21.[Na+] | 77.8% | 0.3 mg/kg |
| CC1(C)Oc2cc3oc(C(=O)O)cc(=O)c3cc2-c2ccc(OCCO)cc21.NCCO | 82.8% | 0.11 mg/kg |
| CC1(C)Oc2c(cc3c(=O)cc(C(=O)O)oc3c2[N+](=O)[O-])-c2ccccc21 | 20% | – |
| COc1c2c(cc3c(=O)cc(C(=O)O)oc13)-c1ccccc1CO2 | 50% | – |
| CC1(C)Oc2c(cc3c(=O)cc(C(=O)O)oc3c2Cl)-c2ccccc21 | 66.7% | – |
| COc1cc2c(cc1Br)-c1cc3c(=O)cc(C(=O)O)oc3cc1OC2(C)C | 0% | – |
| O=C([O-])c1cc(=O)c2c(OCC(O)COc3cccc4oc(C(=O)[O-])cc(=O)c34)cccc2o1.[Na+].[Na+] [CROMOLYN SODIUM] | 26.7% | 2.88 mg/kg |
| CC1(C)Oc2cc3oc(C(=O)O)cc(=O)c3cc2-c2ccccc21.NCCO | 70.3% | 0.5 mg/kg |
| COc1cc2c(cc1OC)C(C)(C)Oc1cc3oc(C(=O)O)cc(=O)c3cc1-2 | 67.7% | – |
| CC1(C)Oc2cc3oc(C(=O)O)cc(=O)c3cc2-c2ccc([N+](=O)[O-])cc21 | 50% | – |
